Test: xn = mol fraction of the nth substance listed
Conditions: Liquid, Vibrating tube method

CCCCCCCCCC [decane] + CCCO
Conditions | mass density [kg/m3]
353.15 K, 10010 kPa, x2 = 0.3001 | 690.11
353.15 K, 10010 kPa, x2 = 0.8711 | 731.37
353.15 K, 10020 kPa, x2 = 0.1907 | 688.55
353.15 K, 11000 kPa, x2 = 0.6863 | 710.38
353.15 K, 11010 kPa, x2 = 0.3001 | 691.26
353.15 K, 11010 kPa, x2 = 0.4326 | 694.72
353.15 K, 11020 kPa, x2 = 0.1391 | 689.4
353.15 K, 11020 kPa, x2 = 0.1907 | 689.66
353.15 K, 11020 kPa, x2 = 0.8711 | 732.51
353.15 K, 12010 kPa, x2 = 0.1391 | 690.47
353.15 K, 12010 kPa, x2 = 0.1907 | 690.83
353.15 K, 12010 kPa, x2 = 0.4326 | 695.89
353.15 K, 12010 kPa, x2 = 0.6863 | 711.53
353.15 K, 12010 kPa, x2 = 0.8711 | 733.61
353.15 K, 12020 kPa, x2 = 0.3001 | 692.38
353.15 K, 13000 kPa, x2 = 0.3001 | 693.53
353.15 K, 13000 kPa, x2 = 0.8711 | 734.68
353.15 K, 13010 kPa, x2 = 0.1391 | 691.56
353.15 K, 13020 kPa, x2 = 0.1907 | 691.91
353.15 K, 13020 kPa, x2 = 0.4326 | 697.03
353.15 K, 13020 kPa, x2 = 0.6863 | 712.69
353.15 K, 14010 kPa, x2 = 0.1907 | 692.99
353.15 K, 14020 kPa, x2 = 0.1391 | 692.62
353.15 K, 14020 kPa, x2 = 0.3001 | 694.63
353.15 K, 14020 kPa, x2 = 0.4326 | 698.13
353.15 K, 14020 kPa, x2 = 0.6863 | 713.81
353.15 K, 14020 kPa, x2 = 0.8711 | 735.8
353.15 K, 15010 kPa, x2 = 0.4326 | 699.22
353.15 K, 15010 kPa, x2 = 0.6863 | 714.9
353.15 K, 15010 kPa, x2 = 0.8711 | 736.86
353.15 K, 15020 kPa, x2 = 0.1391 | 693.66
353.15 K, 15020 kPa, x2 = 0.1907 | 694.05
353.15 K, 15020 kPa, x2 = 0.3001 | 695.7
353.15 K, 16010 kPa, x2 = 0.1391 | 694.64
353.15 K, 16010 kPa, x2 = 0.1907 | 695.08
353.15 K, 16010 kPa, x2 = 0.4326 | 700.29
353.15 K, 16010 kPa, x2 = 0.6863 | 715.98
353.15 K, 16020 kPa, x2 = 0.3001 | 696.78
353.15 K, 16020 kPa, x2 = 0.8711 | 737.89
353.15 K, 17000 kPa, x2 = 0.4326 | 701.32
353.15 K, 17010 kPa, x2 = 0.1907 | 696.15
353.15 K, 17010 kPa, x2 = 0.3001 | 697.84
353.15 K, 17010 kPa, x2 = 0.6863 | 717.03
353.15 K, 17020 kPa, x2 = 0.1391 | 695.67
353.15 K, 17020 kPa, x2 = 0.8711 | 738.93
353.15 K, 18010 kPa, x2 = 0.4326 | 702.35
353.15 K, 18010 kPa, x2 = 0.6863 | 718.05
353.15 K, 18020 kPa, x2 = 0.1391 | 696.65
353.15 K, 18020 kPa, x2 = 0.1907 | 697.1
353.15 K, 18020 kPa, x2 = 0.3001 | 698.82
353.15 K, 18020 kPa, x2 = 0.8711 | 739.92
353.15 K, 19000 kPa, x2 = 0.1391 | 697.56
353.15 K, 19010 kPa, x2 = 0.1907 | 698.02
353.15 K, 19010 kPa, x2 = 0.3001 | 699.8
353.15 K, 19020 kPa, x2 = 0.4326 | 703.33
353.15 K, 19020 kPa, x2 = 0.6863 | 719.04
353.15 K, 19020 kPa, x2 = 0.8711 | 740.89
353.15 K, 20000 kPa, x2 = 0.4326 | 704.33
353.15 K, 20000 kPa, x2 = 0.6863 | 720.06
353.15 K, 20000 kPa, x2 = 0.8711 | 741.82
353.15 K, 20010 kPa, x2 = 0.1391 | 698.43
353.15 K, 20010 kPa, x2 = 0.1907 | 698.94
353.15 K, 20010 kPa, x2 = 0.3001 | 700.68
363.15 K, 100 kPa, x2 = 0.1391 | 664.41
363.15 K, 100 kPa, x2 = 0.1907 | 663.86
363.15 K, 100 kPa, x2 = 0.3001 | 664.03
363.15 K, 100 kPa, x2 = 0.4326 | 666.18
363.15 K, 100 kPa, x2 = 0.6863 | 680.95
363.15 K, 100 kPa, x2 = 0.8711 | 705.01
363.15 K, 1000 kPa, x2 = 0.1907 | 665.28
363.15 K, 1010 kPa, x2 = 0.1391 | 665.85
363.15 K, 1010 kPa, x2 = 0.3001 | 666.15
363.15 K, 1010 kPa, x2 = 0.6863 | 682.3
363.15 K, 1010 kPa, x2 = 0.8711 | 706.22
363.15 K, 1020 kPa, x2 = 0.4326 | 667.3
363.15 K, 2000 kPa, x2 = 0.1391 | 667.06
363.15 K, 2000 kPa, x2 = 0.1907 | 666.5
363.15 K, 2000 kPa, x2 = 0.6863 | 683.55
363.15 K, 2000 kPa, x2 = 0.8711 | 707.37
363.15 K, 2020 kPa, x2 = 0.3001 | 667.4
363.15 K, 2020 kPa, x2 = 0.4326 | 668.51
363.15 K, 3000 kPa, x2 = 0.3001 | 668.59
363.15 K, 3010 kPa, x2 = 0.1391 | 668.24
363.15 K, 3010 kPa, x2 = 0.4326 | 669.77
363.15 K, 3010 kPa, x2 = 0.6863 | 684.83
363.15 K, 3020 kPa, x2 = 0.1907 | 667.69
363.15 K, 3020 kPa, x2 = 0.8711 | 708.57
363.15 K, 4010 kPa, x2 = 0.1391 | 669.44
363.15 K, 4010 kPa, x2 = 0.1907 | 668.95
363.15 K, 4010 kPa, x2 = 0.3001 | 669.83
363.15 K, 4010 kPa, x2 = 0.6863 | 686.13
363.15 K, 4010 kPa, x2 = 0.8711 | 709.79
363.15 K, 4020 kPa, x2 = 0.4326 | 671.06
363.15 K, 5000 kPa, x2 = 0.4326 | 672.31
